{"source": "patent US20060206946A1", "about": "“Method of disrupting heme transport in nematodes and of modelling and evaluating eukaryotic heme transport” (priority 2005, published 2006)", "format_in_all_cases": "in vivo, Caenorhabditis elegans", "key": {"[1]": {"tested_on": "C. elegans", "conditions": "pulse 40 μM ZnMP 3 h", "description": "(C) Fluorescent metabolic labeling of worms with either 40 μM hemin (images 1, 4) or 40 μM ZnMP/4 μM hemin (images 2, 3, 5, 6) for 3 h followed by confocal microscopy with a 546 laser (images 1-3) and DIC optics (images 4-6). Arrowheads indicate ZnMP fluorescence accumulation within intestinal cells and developing embryos. For clarity, the boxed image in 2 is magnified in images 3 and 6. (Bar=100 μm).\n(D) Worms were incubated with 40 μM ZnMP/4 μM hemin for 16 h followed by a chase with 40 μM hemin. Worms were analyzed by epifluorescence microscopy (TRITC channel) and DIC optics. Experiments were performed either in the absence (images 1-4) or presence (images 5-8) of NaN3 during the chase periods to test for the non-specific loss of ZnMP fluorescence. Photomicrograph 4 is shown at a lower power to depict the complete loss of ZnMP fluorescence. (Bar=100 μm). For (C) and (D), four separate experiments were performed with a minimum of 50 worms per data point per experiment. The data are representative for >90% of worms analyzed.\nBecause of the nature of the growth curve, we reasoned that heme homeostatis in C. elegans may be regulated in accordance with organismic needs and metabolic demands. […]\nPulse-Chase Analysis. […] At timed intervals, aliquots of worms were removed into the appropriate medium containing 10 mM NaN3 mounted on a slide and immediately analyzed with a 543 He/Ne laser on a Zeiss 410 confocal microscope, or with a Peltier-cooled Retiga 1300 12-bit CCD camera fitted on to a Leica DMIRE2 autofluorescence/DIC microscope. Images were further analyzed with SIMPLEPCI v5.2 Software (Compix, Inc.). […] No loss of fluorescence was observed when labeling experiments were performed in parallel in the presence of 1 mM NaN3 during the chase period and when worms were incubated in medium without hemin. To account for background autouluorescence in C. elegans, the sensor gain of the CCD camera or the laser was set to subtract any fluorescence obtained from control worms incubated in the presence of 40 μM hemin."}, "[2]": {"tested_on": "C. elegans mutant IH728", "assay": "Growth of heme resistant mutant in CeHR medium", "description": "(§1) To further increase the stringency of our genetic screen we split the contents from each 800 μM hemin selection flasks into two flasks containing either 800 μM or 1000 μM hemin. This allowed us to use another tier of positive selection to identify mutants with greater resistance to heme toxicity. Mutants from each flask were isolated and treated as a separate entity by giving an identification number based on the Genetic Nomenclature Guidelines used for C. elegans (http://biosci.umn.edu/CGC/Nomenclature/nomenguid.htm). To eliminate EMS-induced spurious mutations that could result in false positive, the mutants were outcrossed to wild-type N2 males. After five outcrosses, which replaces ˜97% of the mutant genome, mutants that bred true were selected for further analysis. Using this procedure, we isolated 13 individual mutants that were resistant to heme toxicity. These mutants were further characterized by analyzing Mendelian segregation ratios, X-linkage, phenotype penetrance, generation times, brood size, and their ability to grow under low hemin. […] This observation was surprising because we anticipated that high heme-resistant mutants will grow poorly under low heme. Based on the mutant's growth profile at low and high heme levels, we broadly categorized them into three phenotypic classes: class A, class B and class C (FIG. 13). These “phenoclusters” have the following growth phenotype: (a) three mutants IH728, IH938, IH731 show with robust growth under low and high (≧800 μM heme (FIG. 13B), (b) one mutant IH828 show exceptional growth under low heme, moderate growth at ≦800 μM heme, and no growth at 1000 μM hemin (FIG. 13C), and (c) six mutants IH921, IH11058, IH1068n, IH1068d, IH1048, and IH718 that show moderate growth under high heme (≦800 μM), but normal growth under low heme (FIG. 13D). By classifying these mutants into phenoclusters, we can focus our efforts on the phenotypic datasets to map the molecular networks and pathways involved in heme dependent processes. For instance, mutants in a cluster may have mutations within the same gene or in multiple genes but within the same pathway.\n(§2) Worm Culture and Growth Assays. Free-living worms were cultured in CeHR axenic liquid medium (Dr. Eric Clegg, Personal Communication). […] CeHR medium was modified (henceforth called mCeHR) to eliminate all sources of exogenously added heme; basal growth medium comprised 20 μM hemin chloride (Frontier Scientific, Logan, Utah) and 150 μM of ferrous ammonium sulfate (Sigma Chemicals). Worm strains were grown in mCeHR medium under aerobic conditions in tissue culture flasks at 20° C. ˜3.7×10^6 worms were routinely obtained after 3.5 to 4 days in a T75 flask with 30 ml basal medium from an initial inoculum of −1.5×10^5 worms. For initial culturing of worms in axenic media, three generations of worms were sequentially bleached (1.1% bleach/0.55 M NaOH) to eliminate any contaminating bacterial carryover from agar plates. In all dose-response experiments, worms were growth synchronized by treating the gravid hermaphrodite worms with bleach to dissolve adult worms. The eggs, resistant to bleach, were liberated from the carcasses and extensively washed with M9 buffer followed by overnight hatching in M9 buffer to synchronize growth. By harvesting at appropriate time intervals, synchronous larval stages and adult staged worms were collected for experimental manipulations. Identical numbers of synchronized L1 larvae were inoculated into media with different heme concentrations in 12- or 24-well culture plates. Worm growth was monitored each day and an aliquot was obtained for counting by microscopy usually at days 3, 6, and 9. The worms in each well were counted twice and each growth condition was analyzed in triplicate. P values for statistical significance were calculated utilizing a one-way ANOVA with Student-Newman-Keuls multiple comparison test using GraphPad Instat version 3.01. […]"}, "[3]": {"tested_on": "C. elegans mutant IH731", "assay": "Growth of heme resistant mutant in CeHR medium", "description": "as §1, §2"}, "[4]": {"tested_on": "C. elegans mutant IH828", "assay": "Growth of heme resistant mutant in CeHR medium", "description": "as §1, §2"}, "[5]": {"conditions": "20 μM hemin, average in 24 well plates"}}, "note": "Entries after “also recorded” stand apart in the source; their conditions may differ.", "data": [{"substance": "hemin chloride", "values": [{"measurement": "hemin concentration of growth medium giving dramatic decline in ZnMP fluorescence", "setting": "[1]", "value": "≥ 100", "unit": "µM"}, {"measurement": "hemin concentration of growth medium giving robust uptake of fluorescent ZnMP", "setting": "[1]", "value": "≤ 20", "unit": "µM"}, {"measurement": "Generation time (Days) 20 μM", "setting": "[2]; 20 μM hemin", "value": 3.5, "unit": "days"}, {"measurement": "brood size 20 μM", "setting": "[2]; [5]", "value": 53}, {"measurement": "Generation time (Days) 800 μM", "setting": "[2]; 800 μM hemin", "value": 4, "unit": "days"}, {"measurement": "Generation time (Days) 20 μM", "setting": "[3]; 20 μM hemin", "value": 3.5, "unit": "days"}, {"measurement": "brood size 20 μM", "setting": "[3]; [5]", "value": 53}, {"measurement": "Generation time (Days) 800 μM", "setting": "[3]; 800 μM hemin", "value": 4, "unit": "days"}, {"measurement": "resistance of IH828", "setting": "[4]; 800 μM hemin", "value": "moderately resistant"}, {"measurement": "growth of IH828", "setting": "[4]; 1000 μM hemin", "value": "no growth; also recorded: does not grow"}, {"measurement": "Generation time (Days) 20 μM", "setting": "[4]; IH828, 20 μM hemin", "value": 3.5, "unit": "days"}, {"measurement": "brood size 20 μM", "setting": "[4]; IH828, 20 μM hemin, average in 24 well plates", "value": 67}, {"measurement": "Generation time (Days) 800 μM", "setting": "[4]; IH828, 800 μM hemin", "value": 4, "unit": "days"}]}]}
